According to US8546389B2 (priority 2010, dated 2013):
Read-outs that look alike come from different tables or passages of the source.

Experiments:
1b (BK) NS5bΔ21 = 1b (BK) NS5bΔ21 (Hepatitis C virus genotype 1b (isolate BK) (HCV), UniProt P26663); experiment: HCV polymerase inhibition assay, genotype 1b; type: biochemical, HCV genotype 1b (BK)
In short: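 Both genotype 1b and 3a enzymes assayed identically: ^33P-GTP incorporation on poly(rC) template, GTP at Km, 50 nM NS5bΔ21, pH 7.5 Tris with 5 mM MgCl2 and MnCl2, 1 h reaction ended by cold EDTA. Filter-bound label counted; IC50 fitted by non-linear regression across three-fold dilution series.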

[1] = system: genotype 1b (Con 1) subgenomic replicon cell line; experiment: HCV replicon assay, genotype 1b (Renilla luciferase); type: cell-based, HCV genotype 1b (Con 1); details: Hepatitis C virus, genotype 1b replicon
In short: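 Subgenomic replicon cells expressing Renilla luciferase (1b Con1; 1a and 2a lines by the same method) seeded at 7000 cells/well (5000 for 2a) without G418, exposed to 3-fold compound dilutions for 72 h at 37 °C. Luciferase activity measured; EC50 by non-linear regression.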

[2] = molecular target: genotype 3a (VRL-69) NS5bΔ21 polymerase (Hepatitis C virus genotype 3a, UniProt Q81258); experiment: HCV polymerase inhibition assay, genotype 3a; type: biochemical, HCV genotype 3a (VRL-69)
Sequence of genotype 3a (VRL-69) NS5bΔ21 polymerase (Q81258 whole entry, looked up, stated change not applied): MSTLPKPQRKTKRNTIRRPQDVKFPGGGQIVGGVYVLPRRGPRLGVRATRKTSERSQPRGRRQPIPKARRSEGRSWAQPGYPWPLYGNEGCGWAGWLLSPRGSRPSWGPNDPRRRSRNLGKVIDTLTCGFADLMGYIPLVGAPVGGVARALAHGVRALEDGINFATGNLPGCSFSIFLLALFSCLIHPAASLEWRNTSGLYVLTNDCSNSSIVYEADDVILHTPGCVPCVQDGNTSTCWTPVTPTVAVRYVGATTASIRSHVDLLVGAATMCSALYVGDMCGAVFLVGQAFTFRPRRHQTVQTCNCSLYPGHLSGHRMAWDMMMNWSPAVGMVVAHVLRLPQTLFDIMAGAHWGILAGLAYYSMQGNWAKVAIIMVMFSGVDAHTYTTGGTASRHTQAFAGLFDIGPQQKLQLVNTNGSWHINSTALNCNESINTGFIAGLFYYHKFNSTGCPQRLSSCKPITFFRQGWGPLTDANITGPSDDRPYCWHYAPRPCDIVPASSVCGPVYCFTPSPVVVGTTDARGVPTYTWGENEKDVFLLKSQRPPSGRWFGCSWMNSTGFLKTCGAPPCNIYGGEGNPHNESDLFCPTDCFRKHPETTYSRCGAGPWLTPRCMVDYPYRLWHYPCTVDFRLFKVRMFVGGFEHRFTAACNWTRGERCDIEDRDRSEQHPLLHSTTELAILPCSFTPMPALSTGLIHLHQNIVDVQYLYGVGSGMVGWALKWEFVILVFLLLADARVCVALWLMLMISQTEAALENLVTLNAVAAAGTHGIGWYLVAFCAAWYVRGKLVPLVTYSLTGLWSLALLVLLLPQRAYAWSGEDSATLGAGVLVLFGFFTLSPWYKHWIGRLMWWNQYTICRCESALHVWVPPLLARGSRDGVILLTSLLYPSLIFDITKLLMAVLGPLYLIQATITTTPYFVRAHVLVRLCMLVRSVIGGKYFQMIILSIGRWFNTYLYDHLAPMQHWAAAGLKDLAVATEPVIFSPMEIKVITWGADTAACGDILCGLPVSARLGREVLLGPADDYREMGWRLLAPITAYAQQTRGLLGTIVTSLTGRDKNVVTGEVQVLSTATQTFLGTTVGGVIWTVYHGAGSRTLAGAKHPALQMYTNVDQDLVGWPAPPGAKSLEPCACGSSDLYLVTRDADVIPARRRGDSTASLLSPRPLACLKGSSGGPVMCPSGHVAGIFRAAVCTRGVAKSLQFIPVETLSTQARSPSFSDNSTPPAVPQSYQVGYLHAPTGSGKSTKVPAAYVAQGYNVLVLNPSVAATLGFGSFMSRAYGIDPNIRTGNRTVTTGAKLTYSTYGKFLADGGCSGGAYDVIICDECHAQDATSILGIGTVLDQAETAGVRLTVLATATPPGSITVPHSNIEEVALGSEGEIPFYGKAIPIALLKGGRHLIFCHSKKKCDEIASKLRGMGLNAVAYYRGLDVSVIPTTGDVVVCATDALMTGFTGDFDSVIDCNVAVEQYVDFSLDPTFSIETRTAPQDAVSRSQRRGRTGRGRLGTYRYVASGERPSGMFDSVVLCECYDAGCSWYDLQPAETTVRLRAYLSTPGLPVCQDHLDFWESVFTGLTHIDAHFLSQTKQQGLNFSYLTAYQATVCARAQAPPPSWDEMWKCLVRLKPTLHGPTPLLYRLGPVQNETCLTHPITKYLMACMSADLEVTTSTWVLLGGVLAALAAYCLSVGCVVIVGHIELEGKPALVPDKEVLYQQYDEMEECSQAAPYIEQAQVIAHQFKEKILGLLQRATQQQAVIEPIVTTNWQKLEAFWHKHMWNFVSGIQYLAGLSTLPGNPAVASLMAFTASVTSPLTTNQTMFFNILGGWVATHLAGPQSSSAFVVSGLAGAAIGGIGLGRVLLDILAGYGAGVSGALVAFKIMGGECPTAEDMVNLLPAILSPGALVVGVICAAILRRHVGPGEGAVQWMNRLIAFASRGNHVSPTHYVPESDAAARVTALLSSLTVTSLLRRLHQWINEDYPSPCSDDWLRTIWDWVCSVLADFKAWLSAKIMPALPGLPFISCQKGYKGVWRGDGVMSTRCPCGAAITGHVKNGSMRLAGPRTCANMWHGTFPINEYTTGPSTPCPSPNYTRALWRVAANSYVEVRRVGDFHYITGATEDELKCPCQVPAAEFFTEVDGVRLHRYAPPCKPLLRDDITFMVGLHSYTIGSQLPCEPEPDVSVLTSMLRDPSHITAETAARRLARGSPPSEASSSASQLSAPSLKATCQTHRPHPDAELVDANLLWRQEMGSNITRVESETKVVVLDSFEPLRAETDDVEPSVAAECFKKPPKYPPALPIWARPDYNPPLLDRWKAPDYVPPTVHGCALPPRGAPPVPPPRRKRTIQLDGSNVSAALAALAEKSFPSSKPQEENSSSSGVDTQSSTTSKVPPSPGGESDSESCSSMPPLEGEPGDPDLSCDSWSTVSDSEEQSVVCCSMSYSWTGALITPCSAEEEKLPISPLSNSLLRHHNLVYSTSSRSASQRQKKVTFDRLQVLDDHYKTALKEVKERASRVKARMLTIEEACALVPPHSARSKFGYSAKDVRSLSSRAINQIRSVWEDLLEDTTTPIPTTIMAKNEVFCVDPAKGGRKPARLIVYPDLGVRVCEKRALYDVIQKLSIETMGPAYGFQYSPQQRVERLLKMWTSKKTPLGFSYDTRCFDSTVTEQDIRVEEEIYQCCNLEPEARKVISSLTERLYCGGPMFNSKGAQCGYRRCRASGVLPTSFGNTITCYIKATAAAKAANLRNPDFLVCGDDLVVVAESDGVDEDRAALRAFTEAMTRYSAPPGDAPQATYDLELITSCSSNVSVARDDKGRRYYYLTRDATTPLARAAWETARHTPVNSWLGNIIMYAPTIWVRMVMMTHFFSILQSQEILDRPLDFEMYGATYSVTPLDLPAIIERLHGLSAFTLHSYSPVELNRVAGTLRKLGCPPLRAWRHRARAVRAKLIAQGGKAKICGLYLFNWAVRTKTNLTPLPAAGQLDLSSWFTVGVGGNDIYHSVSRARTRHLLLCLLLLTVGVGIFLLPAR
Experimental: HCV polymerase reactions were carried out using a modified method of Howe et al., Antimicrobial Agents and Chemotherapy 2004 48(12): 4813-4821. Reactions contained a final concentration of, 0.5% DMSO, 50 nM, 1b (BK) NS5bΔ21, 20 mM Tris-HCl pH 7.5, 5 mM MgCl2, 5 mM MnCl2, 3 mM DTT, 0.05% BSA, 0.2 U/μL RNasin, 10 μg/mL Poly(rC) template, GTP (at Km) and 0.05 μCi/μL ^33P-GTP in a total reaction volume of 50 μL. Compounds were tested in a three fold dilution series, for example starting from 50 μM. Reactions were initiated with the addition of GTP and terminated after 1 hour with 50 μL ice cold 0.2 M EDTA. Terminated reactions were transferred to DEAE 96-well filter plates, unincorporated nucleotides washed from the filters and 50 μL scintillation fluid added prior to reading on a scintillation counter. Similarly, a genotype 3a (VRL-69) NS5bΔ21 polymerase enzyme assay was conducted using essentially the same method.
The compound concentration that reduced ^33P-GTP incorporation by 50% (IC50) was calculated using non-linear regression.

[3] = system: subgenomic genotype 2a replicon cell line; experiment: HCV replicon assay, genotype 2a; type: cell-based, HCV genotype 2a; details: Hepatitis C virus
Experimental: (§1) A genotype 1b (Con 1) subgenomic replicon cell line based on Blight et al., Science 2000 290: 1972-1974, modified to express a Renilla luciferase reporter gene was used to assess antiviral activity of test compounds. Cell cultures were maintained in a sub-confluent state in DMEM with glutamine, 10% heat-inactivated foetal bovine serum (FBS) and G418 (Geneticin®).
(§2) For assay, cells were seeded at a density of 7000 cells/well into 96 well tissue culture trays in culture media lacking G418. Compounds were tested in a three fold dilution series, for example starting from 50 uM. After 72 hours incubation at 37° C. and 5% CO2, Renilla luciferase activity was quantified via the Promega Renilla Luciferase or Renilla-Glo™ Luciferase Assay Systems (Promega corporation. The same method was employed for replicon assays using subgenomic genotype 1a and 2a replicon cell lines with a seeding cell density of 5000 cells/well for the 2a cell lines.
(§3) The compound concentration that reduced luciferase activity by 50% (EC50) was calculated using non-linear regression.

[4] = system: subgenomic genotype 1a replicon cell line; experiment: HCV replicon assay, genotype 1a; type: cell-based, HCV genotype 1a; details: Hepatitis C virus
Experimental: as §1, §2, §3

[5] = 1b (BK) NS5bΔ21, 33P-GTP incorporation, read-out: 1b polymerase IC50 (range class)
[6] = genotype 1b, read-out: 1b NS5b polymerase IC50
[7] = 72 hours, luciferase, read-out: genotype 1b EC50 (range class)
[8] = genotype 3a, read-out: 3a NS5b polymerase IC50

Sequence of 1b (BK) NS5bΔ21 (P26663 2420-2989): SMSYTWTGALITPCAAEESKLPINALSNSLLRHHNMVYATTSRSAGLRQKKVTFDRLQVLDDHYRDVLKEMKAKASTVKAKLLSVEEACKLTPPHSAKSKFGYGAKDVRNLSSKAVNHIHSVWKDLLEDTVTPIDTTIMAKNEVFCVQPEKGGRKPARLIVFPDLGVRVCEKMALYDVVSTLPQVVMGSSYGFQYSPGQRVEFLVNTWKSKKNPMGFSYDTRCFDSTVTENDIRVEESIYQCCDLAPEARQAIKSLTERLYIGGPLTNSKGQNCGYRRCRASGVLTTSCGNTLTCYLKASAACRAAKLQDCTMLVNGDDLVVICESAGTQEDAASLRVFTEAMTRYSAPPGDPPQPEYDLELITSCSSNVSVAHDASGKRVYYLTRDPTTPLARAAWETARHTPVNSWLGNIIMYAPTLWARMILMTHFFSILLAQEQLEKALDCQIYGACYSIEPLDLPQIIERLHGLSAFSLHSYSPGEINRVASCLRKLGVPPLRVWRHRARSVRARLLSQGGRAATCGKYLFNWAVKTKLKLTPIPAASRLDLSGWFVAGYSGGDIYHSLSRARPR

Compound	IC50 (1b (BK) NS5bΔ21; [5])	IC50 (1b (BK) NS5bΔ21; [6])	EC50 [1, 7]	EC50 ([1]; read-out: Replicon 1b EC50)	IC50 [2, 8]	EC50 [3]	EC50 [4]	IC50 [2]
CNC(=O)c1c2cc(C3CC3)c(N(CCCNC(C)=O)S(C)(=O)=O)cc2nn1-c1ccc(Nc2ccc(F)cc2)cc1 [Compound 119]	< 990 nM	130 nM	< 990 nM	240 nM	30 nM	2700 nM	1200 nM	–
CNC(=O)c1c2cc(C3CC3)c(N(CCCNC(=O)c3ccoc3)S(C)(=O)=O)cc2nn1-c1ccc(Nc2ccc(F)cc2)cc1 [Compound 120]	< 990 nM	110 nM	< 990 nM	90 nM	–	14400 nM	3690 nM	80 nM
CCOC(=O)CCN(c1cc2nn(-c3ccc(Br)cc3)c(C(=O)NC)c2cc1C1CC1)S(C)(=O)=O [Compound 131]	< 990 nM	370 nM	< 990 nM	140 nM	–	3790 nM	450 nM	470 nM
CNC(=O)c1c2cc(C3CC3)c(N(CCCNS(C)(=O)=O)S(C)(=O)=O)cc2nn1-c1ccc(Br)cc1 [Compound 134]	< 990 nM	90 nM	< 990 nM	110 nM	30 nM	5020 nM	540 nM	–
CCN(c1cc2nn(-c3ccc(Oc4ccc(F)cc4)nc3)c(C(=O)NC)c2cc1C1CC1)S(C)(=O)=O [Compound 136]	1000 to 9990 nM	1550 nM	< 990 nM	270 nM	820 nM	1800 nM	1530 nM	–
CNC(=O)c1c2cc(C3CC3)c(N(CCCNC(=O)C(C)C)S(C)(=O)=O)cc2nn1-c1ccc(Br)cc1 [Compound 156]	< 990 nM	250 nM	< 990 nM	210 nM	70 nM	1510 nM	210 nM	–
CNC(=O)c1c2cc(C3CC3)c(N(CCCNC(=O)c3ccoc3)S(C)(=O)=O)cc2nn1-c1ccc(Br)cc1 [Compound 160]	< 990 nM	70 nM	< 990 nM	90 nM	40 nM	780 nM	340 nM	–
CCOC(=O)CCC(=O)NCCCN(c1cc2nn(-c3ccc(Br)cc3)c(C(=O)NC)c2cc1C1CC1)S(C)(=O)=O [Compound 164]	< 990 nM	520 nM	< 990 nM	210 nM	40 nM	620 nM	10 nM	–
CNC(=O)c1c2cc(C3CC3)c(N(CCCNC(=O)c3ccccc3)S(C)(=O)=O)cc2nn1-c1ccc(Br)cc1 [Compound 166]	< 990 nM	160 nM	< 990 nM	20 nM	30 nM	340 nM	20 nM	–
CCCC(=O)NCCCN(c1cc2nn(-c3ccc(Br)cc3)c(C(=O)NC)c2cc1C1CC1)S(C)(=O)=O [Compound 171]	< 990 nM	310 nM	< 990 nM	210 nM	40 nM	4260 nM	280 nM	–
CNC(=O)c1c2cc(C3CC3)c(N(CCCNC(=O)C(F)(F)F)S(C)(=O)=O)cc2nn1-c1ccc(Br)cc1 [Compound 172]	< 990 nM	110 nM	< 990 nM	60 nM	40 nM	1830 nM	60 nM	–
CNC(=O)c1c2cc(C3CC3)c(N(CCCNC(=O)c3ccnc(OC)c3)S(C)(=O)=O)cc2nn1-c1ccc(Br)cc1 [Compound 177]	< 990 nM	280 nM	< 990 nM	70 nM	60 nM	310 nM	110 nM	–
CNC(=O)c1c2cc(C3CC3)c(N(CCCNC(=O)c3nonc3C)S(C)(=O)=O)cc2nn1-c1ccc(Br)cc1 [Compound 179]	< 990 nM	260 nM	< 990 nM	70 nM	30 nM	520 nM	180 nM	–
CNC(=O)c1c2cc(C3CC3)c(N(CCCNC(=O)c3cnn(C)c3C)S(C)(=O)=O)cc2nn1-c1ccc(Br)cc1 [Compound 180]	< 990 nM	370 nM	< 990 nM	140 nM	50 nM	1110 nM	570 nM	–
CNC(=O)c1c2cc(C3CC3)c(N(CCCNC(=O)c3cccc(OC)c3F)S(C)(=O)=O)cc2nn1-c1ccc(Br)cc1 [Compound 189]	< 990 nM	130 nM	< 990 nM	30 nM	50 nM	230 nM	80 nM	–
CNC(=O)c1c2cc(C3CC3)c(N(CCCNC(=O)c3cccnc3OC)S(C)(=O)=O)cc2nn1-c1ccc(Br)cc1 [Compound 190]	< 990 nM	830 nM	< 990 nM	70 nM	40 nM	430 nM	90 nM	–
CNC(=O)c1c2cc(C3CC3)c(N(CCCNC(=O)c3cccnc3)S(C)(=O)=O)cc2nn1-c1ccc(Br)cc1 [Compound 191]	< 990 nM	430 nM	< 990 nM	190 nM	20 nM	2590 nM	400 nM	–
CNC(=O)c1c2cc(C3CC3)c(N(CCCN3CCOCC3)S(C)(=O)=O)cc2nn1-c1ccc(Br)cc1 [Compound 200]	< 990 nM	220 nM	< 990 nM	170 nM	40 nM	1050 nM	650 nM	–
CNC(=O)c1c2cc(C3CC3)c(N(CCCNC(=O)[C@H]3CCC[C@@H]3C(=O)OC)S(C)(=O)=O)cc2nn1-c1ccc(Br)cc1 [Compound 216]	< 990 nM	180 nM	< 990 nM	40 nM	20 nM	680 nM	130 nM	–
CNC(=O)c1c2cc(C3CC3)c(N(C)S(C)(=O)=O)cc2nn1-c1ccc(Br)cc1 [Compound 234]	< 990 nM	140 nM	< 990 nM	80 nM	20 nM	420 nM	240 nM	–
CNC(=O)c1c2cc(C3CC3)c(N(CCC3COC(C)(C)OC3)S(C)(=O)=O)cc2nn1-c1ccc(Cl)cc1 [Compound 235]	< 990 nM	90 nM	< 990 nM	40 nM	30 nM	140 nM	280 nM	–
